From PubChem BioAssay AID192 (DTP/NCI, 2004) come the findings set out here.

This experiment concerns BDF1 mice, B16 melanoma ip, median survival T/C. Briefly: NCI In Vivo Anticancer Drug Screen. Data for tumor model B16 Melanoma (intraperitoneal) in B6D2F1 (BDF1) mice. As to conditions: endpoint: median survival time, higher = longer survival. Put shortly:
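Read-out: survival or tumor size, given as treated/control ratio. Controls received vehicle only; animals bore transplantable tumors.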

The structures appear in SMILES notation. Toxic doses and inconclusive results are not listed.

For `CC[C@@]1(O)C[C@H](OC2CC(N(C)C)C(OC3CC(O)C(O[C@@H]4O[C@@H](C)C(=O)C=C4N)C(C)O3)C(C)O2)c2c(cc3c(c2O)C(=O)c2c(O)ccc(O)c2C3=O)[C@H]1C(=O)OC` (stereo partly specified), the T/C is 113 % of control (dose: 0.03 mg/kg/injection, schedule: Q01DX001 (ip), vehicle: saline); 109 % of control (dose: 0.05 mg/kg/injection, schedule: Q01DX001 (ip), vehicle: saline); 178 % of control (dose: 0.38 mg/kg/injection, schedule: Q01DX009 (ip), vehicle: saline); 167 % of control (dose: 0.75 mg/kg/injection, schedule: Q01DX009 (ip), vehicle: saline); 223 % of control (dose: 1.5 mg/kg/injection, schedule: Q01DX009 (ip), vehicle: saline); 159 % of control (dose: 1.6 mg/kg/injection, schedule: Q01DX001 (ip), vehicle: saline). Also, the T/C (dose: 3.2 mg/kg/injection, schedule: Q01DX001 (ip), vehicle: saline) was 114 % of control; the T/C (dose: 1.0 micrograms/kg/injection, schedule: Q01DX005 (ip), vehicle: Klucel (hydroxypropylcellulose) (HPC)) was 110 % of control; the T/C (dose: 2.0 micrograms/kg/injection, schedule: Q01DX005 (ip), vehicle: Klucel (hydroxypropylcellulose) (HPC)) is 100 % of control; the T/C (dose: 4.0 micrograms/kg/injection, schedule: Q01DX005 (ip), vehicle: Klucel (hydroxypropylcellulose) (HPC)) is 107 % of control; the T/C (dose: 8.0 micrograms/kg/injection, schedule: Q01DX005 (ip), vehicle: Klucel (hydroxypropylcellulose) (HPC)) was 103 % of control.

With `CCN(C(=O)Nc1ccccc1)c1ccccc1`, the T/C is 94 % of control (dose: 100.0 mg/kg/injection, schedule: Q04DX003 (ip), vehicle: saline with Tween-80); 100 % of control (dose: 200.0 mg/kg/injection, schedule: Q04DX003 (ip), vehicle: saline with Tween-80); 97 % of control (dose: 400.0 mg/kg/injection, schedule: Q04DX003 (ip), vehicle: saline with Tween-80).

Consider `CC(Cl)CN(CC(C)Cl)C(=O)OCC(NC(=O)OCc1ccccc1)C(=O)OCc1ccccc1` (stereo unspecified), for which the T/C runs as follows: (dose: 12.5 mg/kg/injection, schedule: Q04DX003 (ip), vehicle: Klucel (hydroxypropylcellulose) (HPC)) 86 % of control; (dose: 25.0 mg/kg/injection, schedule: Q04DX003 (ip), vehicle: Klucel (hydroxypropylcellulose) (HPC)) 86 % of control; (dose: 50.0 mg/kg/injection, schedule: Q04DX003 (ip), vehicle: Klucel (hydroxypropylcellulose) (HPC)) 86 % of control; (dose: 100.0 mg/kg/injection, schedule: Q01DX009 (ip), vehicle: Klucel (hydroxypropylcellulose) (HPC)) 97 % of control; (dose: 200.0 mg/kg/injection, schedule: Q01DX009 (ip), vehicle: Klucel (hydroxypropylcellulose) (HPC)) 97 % of control; (dose: 200.0 mg/kg/injection, schedule: Q04DX003 (ip), vehicle: Klucel (hydroxypropylcellulose) (HPC)) 93 % of control. The T/C (dose: 400.0 mg/kg/injection, schedule: Q01DX009 (ip), vehicle: Klucel (hydroxypropylcellulose) (HPC)) is 88 % of control.
